Assay results as given in ChEMBL document CHEMBL1201862, “PubChem BioAssay data set” (2004).
Where a name gives a salt, the structure may show the parent alone. Activity calls are given as the source filed them.

What was measured:
[1] = insulin promoter down-regulators in MIN6 cells, imaging, high-content screening, mouse beta cells (AID 1628); type: functional
[2] = cytotoxicity in MIN6 insulinoma cells, dose response, cytotoxicity control, cell-based, mouse insulinoma (AID 2122); type: functional;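 further: confirmatory high-throughput counterscreen run to flag cytotoxic compounds; mouse MIN-6 beta cells carrying an insulin promoter eGFP reporter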
[3] = inhibitors of intracellular T. cruzi replication, confirmation, NIH3T3 host cells, beta-gal luminescence (AID 2044); type: functional, cell-based;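 further: intracellular parasites grown in NIH/3T3 mouse fibroblasts as host cells; luminescent beta-galactosidase reporter signal from transgenic T. cruzi replicating inside host cells; inhibitors lower the luminescence signal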
[4] = cytotoxicity toward NIH3T3 fibroblasts, dose response, counter-screen, cell-based, ATP luminescence, mouse fibroblasts (AID 2010); type: functional;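 further: cells exposed to compound for about 90 hours before reading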
Trypsin = Trypsin (Sus scrofa, UniProt P00761); assay: porcine trypsin inhibitors, dose response, selectivity assay for Rce1 protease inhibitor project, biochemical, quenched peptide fluorescence, cherry-pick (AID 488789)
CAAX prenyl protease 2 = molecular target: T1, CAAX prenyl protease 2 (Saccharomyces cerevisiae S288c, UniProt Q03530); type: biochemical
T1 sequence (Q03530 whole entry): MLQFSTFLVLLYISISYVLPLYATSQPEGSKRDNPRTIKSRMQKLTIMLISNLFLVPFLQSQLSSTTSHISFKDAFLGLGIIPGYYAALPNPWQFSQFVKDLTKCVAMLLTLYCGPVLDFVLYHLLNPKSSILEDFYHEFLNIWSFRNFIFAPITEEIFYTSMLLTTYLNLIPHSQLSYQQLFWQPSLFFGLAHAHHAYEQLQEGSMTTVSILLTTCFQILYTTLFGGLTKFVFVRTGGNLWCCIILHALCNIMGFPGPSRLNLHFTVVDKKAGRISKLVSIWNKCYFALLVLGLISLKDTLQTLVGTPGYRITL

CAAX prenyl protease 1 = CAAX prenyl protease 1 (Saccharomyces cerevisiae S288c, UniProt P47154); assay: Ste24 protease inhibitors, dose response, biochemical, S. cerevisiae, plate reader, cherry-pick (AID 488815)
[5] = Luminescence Cell-Based Dose Retest to Confirm Inhibitors of Cancer Stem Cells. [Related pubchem assays (depositor defined):AID2717, AID2721]; type: functional; conditions: Homo sapiens
[6] = cytotoxicity in HMLE control line with eGFP shRNA, dose response, counter-screen for HMLE_sh_ECad selective toxicity project, cell-based, HMLE_sh_eGFP, luminescence (AID 463074); type: functional, Homo sapiens;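 further: HMLE human mammary epithelial cells expressing control shRNA against eGFP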
Vero = assay: cells; type: functional, cell-based; conditions: Chlorocebus sabaeus
HEK293 = assay: cells; type: functional, cell-based; conditions: Homo sapiens
[7] = molecular target: T2, Nuclear receptor subfamily 0 group B member 1 (Homo sapiens, UniProt P51843); assay: Luminescence-based cell-based high throughput dose response assay for inhibitors of the orphan nuclear receptor subfamily 0, group B, member 1 (DAX1; NR0B1). [Related pubchem assays (depositor defined):AID504766, AID504790]; type: functional
T2 sequence (P51843 whole entry): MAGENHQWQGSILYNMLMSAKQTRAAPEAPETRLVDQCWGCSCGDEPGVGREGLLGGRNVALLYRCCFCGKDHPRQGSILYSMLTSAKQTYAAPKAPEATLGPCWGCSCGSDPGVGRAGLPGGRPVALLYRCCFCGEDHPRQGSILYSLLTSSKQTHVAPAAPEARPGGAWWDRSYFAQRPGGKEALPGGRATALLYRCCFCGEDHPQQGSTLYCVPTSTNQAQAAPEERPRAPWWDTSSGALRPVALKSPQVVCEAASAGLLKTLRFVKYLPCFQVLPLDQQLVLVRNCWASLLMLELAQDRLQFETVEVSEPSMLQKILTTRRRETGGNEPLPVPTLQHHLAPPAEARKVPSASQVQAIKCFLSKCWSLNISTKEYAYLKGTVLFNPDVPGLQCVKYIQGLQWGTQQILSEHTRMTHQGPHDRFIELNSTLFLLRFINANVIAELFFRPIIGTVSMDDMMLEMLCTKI

[8] = molecular target: T3, Tyrosine-protein phosphatase non-receptor type 7 (Homo sapiens, UniProt P35236); type: functional
T3 sequence (P35236 whole entry): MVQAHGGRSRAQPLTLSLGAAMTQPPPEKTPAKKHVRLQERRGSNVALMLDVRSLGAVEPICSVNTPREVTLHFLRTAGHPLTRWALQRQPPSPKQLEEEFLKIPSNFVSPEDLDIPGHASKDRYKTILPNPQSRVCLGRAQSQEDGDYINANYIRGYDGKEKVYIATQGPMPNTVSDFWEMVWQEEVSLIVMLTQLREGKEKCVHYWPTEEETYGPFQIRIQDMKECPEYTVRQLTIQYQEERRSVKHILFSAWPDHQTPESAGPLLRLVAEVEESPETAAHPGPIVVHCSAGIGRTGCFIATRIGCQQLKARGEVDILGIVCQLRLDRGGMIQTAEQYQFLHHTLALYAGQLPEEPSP

[9] = molecular target: Glyceraldehyde-3-phosphate dehydrogenase (Homo sapiens, UniProt P04406)
[10] = molecular target: T4, E3 ubiquitin-protein ligase XIAP (Homo sapiens, UniProt P98170); assay: Counter Screen using XIAP-Bir3 for Chemical Antagonists of Bir1/2 domains of IAP-family anti-apoptotic proteins. [Related pubchem assays (depositor defined):AID1018, AID1449, AID1514, AID1638, AID1749, AID1750, AID488957, AID488963]
[11] = molecular target: T4, E3 ubiquitin-protein ligase XIAP; assay: XIAP antagonists, biochemical, IAP family, fluorescence polarization (AID 1018); type: functional
[12] = molecular target: T5, Dual specificity protein phosphatase 6 (Rattus norvegicus, UniProt Q64346)
T5 sequence (Q64346 whole entry): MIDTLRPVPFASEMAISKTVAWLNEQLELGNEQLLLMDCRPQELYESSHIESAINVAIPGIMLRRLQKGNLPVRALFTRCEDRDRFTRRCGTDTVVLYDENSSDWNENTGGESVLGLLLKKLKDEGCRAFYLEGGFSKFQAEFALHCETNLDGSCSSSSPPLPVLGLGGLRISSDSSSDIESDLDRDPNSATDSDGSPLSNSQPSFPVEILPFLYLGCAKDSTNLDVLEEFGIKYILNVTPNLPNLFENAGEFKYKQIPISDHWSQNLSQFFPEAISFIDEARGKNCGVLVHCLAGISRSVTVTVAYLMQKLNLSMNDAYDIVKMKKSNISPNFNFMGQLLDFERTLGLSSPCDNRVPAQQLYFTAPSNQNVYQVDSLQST

[13] = molecular target: T5, Dual specificity protein phosphatase 6; type: functional
[14] = system: Streptococcus sp. 'group A'; assay: growth inhibition of control SK(-) GAS strain, dose response, counter-screen for streptokinase expression inhibitor project, luminescence, kanamycin, BacTiterGlo, confirmation (AID 1900); type: functional, organism-based
NS3 = NS3 (Hepatitis C virus, UniProt A3EZJ3); assay: PubChem AID 2173; parameters: species or system Hepacivirus hominis
[15] = enhancers of respiration in Yfh1-depleted yeast, dose response, Friedreich's ataxia, plus single-dose screen (AID 1465); type: functional;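 further: yeast depleted of Yfh1p frataxin homolog grown on glycerol needing respiration; WST-1 tetrazolium dye reduction as measure of cellular dehydrogenase metabolic activity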
Streptococcus = assay: Group A Streptococcus viability loss, dose response, counter-screen for streptokinase expression inhibitor project, luminescence, BacTiterGlo (AID 1915); type: functional, organism-based;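 further: potency for reduction of bacterial viability or growth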
[16] = molecular target: T6, Rac GTPase-activating protein 1 (Homo sapiens, UniProt Q9H0H5); assay: MgcRacGAP GTPase-activating activity inhibitors, confirmation, biochemical, ADP Hunter fluorescence, primary and confirmatory (AID 624330); type: functional
T6 sequence (Q9H0H5 whole entry): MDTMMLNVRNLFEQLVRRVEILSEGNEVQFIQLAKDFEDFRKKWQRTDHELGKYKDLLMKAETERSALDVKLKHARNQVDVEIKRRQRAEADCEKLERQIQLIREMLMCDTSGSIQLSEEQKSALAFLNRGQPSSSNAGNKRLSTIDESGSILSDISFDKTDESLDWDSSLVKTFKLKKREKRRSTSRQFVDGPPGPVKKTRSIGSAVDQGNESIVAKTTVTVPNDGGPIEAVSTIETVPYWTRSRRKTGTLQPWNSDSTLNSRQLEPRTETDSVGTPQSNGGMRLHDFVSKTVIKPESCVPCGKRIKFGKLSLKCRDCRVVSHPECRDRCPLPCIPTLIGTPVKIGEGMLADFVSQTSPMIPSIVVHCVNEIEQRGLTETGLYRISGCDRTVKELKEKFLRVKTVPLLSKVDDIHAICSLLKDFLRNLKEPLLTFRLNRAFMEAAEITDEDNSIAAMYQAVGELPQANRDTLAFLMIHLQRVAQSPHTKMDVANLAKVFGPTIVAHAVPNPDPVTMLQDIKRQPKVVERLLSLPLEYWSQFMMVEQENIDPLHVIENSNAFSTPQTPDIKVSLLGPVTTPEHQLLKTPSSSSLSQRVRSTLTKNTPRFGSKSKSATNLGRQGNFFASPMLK

[17] = molecular target: 1-phosphatidylinositol 4,5-bisphosphate phosphodiesterase gamma-1 (Homo sapiens, UniProt P19174); assay: Counterscreen for inhibitors of phospholipase C isozymes (PLC-B3): Fluorescence-based biochemical high throughput dose response assay to identify inhibitors of phospholipase C isozymes (PLC-gamma1).
[18] = molecular target: 1-phosphatidylinositol 4,5-bisphosphate phosphodiesterase beta-3 (Homo sapiens, UniProt Q01970); assay: Fluorescence-based biochemical high throughput dose response assay to identify inhibitors of phospholipase C isozymes (PLC-B3).
Escherichia coli [19] = assay: microbe, parasite or virus in culture
Escherichia coli [20] = assay: microbe, parasite or virus in culture; remark: listed apart in the source

T4 sequence (P98170 whole entry): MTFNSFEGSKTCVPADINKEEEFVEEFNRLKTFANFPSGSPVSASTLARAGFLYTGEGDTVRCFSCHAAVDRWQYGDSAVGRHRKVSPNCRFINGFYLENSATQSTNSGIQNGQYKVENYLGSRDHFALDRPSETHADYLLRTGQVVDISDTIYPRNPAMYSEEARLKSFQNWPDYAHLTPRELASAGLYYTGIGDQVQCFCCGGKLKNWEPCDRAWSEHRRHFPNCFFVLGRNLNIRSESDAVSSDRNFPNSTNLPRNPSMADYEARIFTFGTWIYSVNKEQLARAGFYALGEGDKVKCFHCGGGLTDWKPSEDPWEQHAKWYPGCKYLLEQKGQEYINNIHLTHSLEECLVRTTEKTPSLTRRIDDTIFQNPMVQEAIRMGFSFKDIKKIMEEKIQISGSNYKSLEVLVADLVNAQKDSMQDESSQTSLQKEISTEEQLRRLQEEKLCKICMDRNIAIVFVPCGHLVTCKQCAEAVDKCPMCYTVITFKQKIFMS
Sequence of 1-phosphatidylinositol 4,5-bisphosphate phosphodiesterase beta-3 (Q01970 whole entry): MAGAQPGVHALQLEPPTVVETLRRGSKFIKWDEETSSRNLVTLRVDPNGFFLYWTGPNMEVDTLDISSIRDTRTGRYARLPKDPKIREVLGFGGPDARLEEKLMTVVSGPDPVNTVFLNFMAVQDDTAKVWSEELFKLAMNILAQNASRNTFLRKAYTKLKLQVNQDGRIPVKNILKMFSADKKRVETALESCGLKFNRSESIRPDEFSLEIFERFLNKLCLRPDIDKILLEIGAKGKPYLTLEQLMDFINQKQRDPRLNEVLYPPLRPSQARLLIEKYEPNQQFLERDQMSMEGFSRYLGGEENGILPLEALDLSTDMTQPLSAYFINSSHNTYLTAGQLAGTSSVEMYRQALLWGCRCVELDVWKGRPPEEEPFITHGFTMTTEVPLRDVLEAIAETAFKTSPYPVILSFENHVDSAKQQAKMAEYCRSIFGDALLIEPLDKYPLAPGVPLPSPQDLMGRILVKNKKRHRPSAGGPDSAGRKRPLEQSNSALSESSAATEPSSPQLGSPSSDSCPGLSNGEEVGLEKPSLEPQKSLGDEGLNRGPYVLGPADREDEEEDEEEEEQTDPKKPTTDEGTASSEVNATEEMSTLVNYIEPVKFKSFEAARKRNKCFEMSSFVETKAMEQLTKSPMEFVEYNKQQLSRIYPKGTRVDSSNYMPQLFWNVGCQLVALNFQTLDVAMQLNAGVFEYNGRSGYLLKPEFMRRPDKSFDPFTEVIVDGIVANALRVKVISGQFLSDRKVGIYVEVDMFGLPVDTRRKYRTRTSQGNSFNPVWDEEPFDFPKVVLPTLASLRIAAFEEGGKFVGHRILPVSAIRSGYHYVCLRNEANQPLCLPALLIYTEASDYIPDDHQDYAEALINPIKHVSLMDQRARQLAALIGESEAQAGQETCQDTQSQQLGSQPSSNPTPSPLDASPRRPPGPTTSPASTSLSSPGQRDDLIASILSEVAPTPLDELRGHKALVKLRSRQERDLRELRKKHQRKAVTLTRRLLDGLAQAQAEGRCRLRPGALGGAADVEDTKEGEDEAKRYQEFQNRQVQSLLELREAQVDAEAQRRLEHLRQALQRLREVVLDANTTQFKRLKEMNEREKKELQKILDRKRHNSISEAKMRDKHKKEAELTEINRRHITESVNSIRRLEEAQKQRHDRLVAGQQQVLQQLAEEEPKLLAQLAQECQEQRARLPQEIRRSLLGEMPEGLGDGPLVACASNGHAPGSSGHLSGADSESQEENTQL
Sequence of 1-phosphatidylinositol 4,5-bisphosphate phosphodiesterase gamma-1 (P19174 whole entry): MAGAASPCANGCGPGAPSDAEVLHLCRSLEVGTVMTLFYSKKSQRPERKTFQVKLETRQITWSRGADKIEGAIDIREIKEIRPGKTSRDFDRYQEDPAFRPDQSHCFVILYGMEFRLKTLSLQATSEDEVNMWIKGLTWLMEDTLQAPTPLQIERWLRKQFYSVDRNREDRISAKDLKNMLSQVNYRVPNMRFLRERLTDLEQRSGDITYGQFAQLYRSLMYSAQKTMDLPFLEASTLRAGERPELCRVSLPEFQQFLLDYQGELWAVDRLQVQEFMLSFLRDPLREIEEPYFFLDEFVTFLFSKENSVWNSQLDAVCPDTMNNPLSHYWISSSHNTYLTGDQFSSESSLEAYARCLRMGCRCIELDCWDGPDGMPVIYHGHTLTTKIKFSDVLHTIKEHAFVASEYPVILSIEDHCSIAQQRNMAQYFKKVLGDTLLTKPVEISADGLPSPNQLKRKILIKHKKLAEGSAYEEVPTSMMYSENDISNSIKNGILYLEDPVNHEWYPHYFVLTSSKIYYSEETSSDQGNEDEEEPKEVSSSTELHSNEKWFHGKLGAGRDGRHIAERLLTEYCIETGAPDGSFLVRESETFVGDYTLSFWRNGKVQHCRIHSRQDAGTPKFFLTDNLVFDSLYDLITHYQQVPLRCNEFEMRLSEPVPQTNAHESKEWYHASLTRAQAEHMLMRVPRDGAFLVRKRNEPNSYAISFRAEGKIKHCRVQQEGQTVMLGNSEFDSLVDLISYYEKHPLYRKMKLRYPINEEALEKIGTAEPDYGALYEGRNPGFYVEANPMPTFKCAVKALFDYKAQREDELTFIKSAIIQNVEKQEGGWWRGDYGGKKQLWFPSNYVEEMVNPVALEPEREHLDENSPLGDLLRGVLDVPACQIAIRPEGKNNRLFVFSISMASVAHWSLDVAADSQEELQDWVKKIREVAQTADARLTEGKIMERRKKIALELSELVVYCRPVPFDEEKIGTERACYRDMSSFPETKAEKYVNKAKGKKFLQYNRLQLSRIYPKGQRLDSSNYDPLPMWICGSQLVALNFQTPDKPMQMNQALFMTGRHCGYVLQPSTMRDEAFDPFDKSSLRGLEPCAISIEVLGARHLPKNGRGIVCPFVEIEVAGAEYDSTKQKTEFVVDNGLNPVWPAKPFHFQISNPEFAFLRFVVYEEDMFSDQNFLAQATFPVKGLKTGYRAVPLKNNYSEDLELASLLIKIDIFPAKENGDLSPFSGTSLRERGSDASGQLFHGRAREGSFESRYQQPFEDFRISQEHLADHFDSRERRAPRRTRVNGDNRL
Sequence of NS3 (A3EZJ3 whole entry): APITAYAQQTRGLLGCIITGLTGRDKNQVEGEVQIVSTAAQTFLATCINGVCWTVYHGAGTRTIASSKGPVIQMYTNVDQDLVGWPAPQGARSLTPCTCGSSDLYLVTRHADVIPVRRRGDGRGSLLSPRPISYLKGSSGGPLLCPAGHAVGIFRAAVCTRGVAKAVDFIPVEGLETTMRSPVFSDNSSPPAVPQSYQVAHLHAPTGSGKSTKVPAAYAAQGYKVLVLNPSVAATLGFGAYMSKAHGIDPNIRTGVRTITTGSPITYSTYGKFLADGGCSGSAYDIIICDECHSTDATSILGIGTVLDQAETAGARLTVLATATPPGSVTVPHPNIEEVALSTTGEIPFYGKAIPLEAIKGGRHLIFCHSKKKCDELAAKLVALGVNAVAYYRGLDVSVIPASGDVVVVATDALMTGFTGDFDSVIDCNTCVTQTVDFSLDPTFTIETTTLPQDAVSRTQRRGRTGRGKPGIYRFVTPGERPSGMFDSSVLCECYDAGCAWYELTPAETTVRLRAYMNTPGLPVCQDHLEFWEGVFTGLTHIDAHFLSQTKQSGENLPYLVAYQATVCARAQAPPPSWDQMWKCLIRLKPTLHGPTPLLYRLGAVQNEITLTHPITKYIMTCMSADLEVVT
Sequence of CAAX prenyl protease 1 (P47154 whole entry): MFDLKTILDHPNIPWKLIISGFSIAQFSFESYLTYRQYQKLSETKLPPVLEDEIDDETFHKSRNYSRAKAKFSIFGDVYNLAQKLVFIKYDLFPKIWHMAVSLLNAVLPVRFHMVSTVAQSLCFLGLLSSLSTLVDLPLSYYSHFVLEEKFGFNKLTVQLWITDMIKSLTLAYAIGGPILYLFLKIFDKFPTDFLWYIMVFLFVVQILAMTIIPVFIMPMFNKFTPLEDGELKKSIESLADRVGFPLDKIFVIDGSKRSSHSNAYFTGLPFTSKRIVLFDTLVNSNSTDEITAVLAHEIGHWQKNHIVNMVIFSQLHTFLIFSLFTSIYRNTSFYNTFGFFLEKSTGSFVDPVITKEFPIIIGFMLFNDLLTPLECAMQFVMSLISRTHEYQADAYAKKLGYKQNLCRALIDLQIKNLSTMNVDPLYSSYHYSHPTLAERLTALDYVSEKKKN
Sequence of Trypsin (P00761 whole entry): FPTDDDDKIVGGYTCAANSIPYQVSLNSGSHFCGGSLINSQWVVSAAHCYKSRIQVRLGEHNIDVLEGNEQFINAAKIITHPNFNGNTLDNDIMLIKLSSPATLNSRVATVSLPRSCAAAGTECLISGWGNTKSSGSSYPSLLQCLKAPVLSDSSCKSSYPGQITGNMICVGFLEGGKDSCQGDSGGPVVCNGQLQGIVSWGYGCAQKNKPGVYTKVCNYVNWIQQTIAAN
Sequence of Glyceraldehyde-3-phosphate dehydrogenase (P04406 whole entry): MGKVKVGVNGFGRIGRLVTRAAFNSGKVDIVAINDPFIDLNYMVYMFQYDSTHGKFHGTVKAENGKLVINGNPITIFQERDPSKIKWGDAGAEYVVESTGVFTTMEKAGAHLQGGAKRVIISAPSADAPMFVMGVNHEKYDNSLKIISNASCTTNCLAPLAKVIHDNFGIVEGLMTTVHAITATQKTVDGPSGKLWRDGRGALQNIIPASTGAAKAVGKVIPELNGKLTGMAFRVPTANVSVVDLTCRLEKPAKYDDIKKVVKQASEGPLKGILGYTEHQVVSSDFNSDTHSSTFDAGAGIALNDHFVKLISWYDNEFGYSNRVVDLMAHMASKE

With CN1/C(=C/C(=S)NC(=O)C2(C)CC2(Cl)Cl)C(C)(C)c2ccccc21 (configuration not stated) the IC50 [1] was 2.5 µM (active), the IC50 [2] was 0.851 µM (active) and the EC50 [3] was 3.4 µM (active). For the same compound, the EC50 [4] was > 60 µM (not active).
With CC(C)c1cc(=O)oc2c3c4c(cc12)CCCN4CCC3 the AC50 (Trypsin) was 24.1 µM (active), the AC50 (CAAX prenyl protease 2) was > 100 µM (inactive) and the AC50 (CAAX prenyl protease 1) was 4 µM (active).
In the case of Cn1c(C(=O)N2CCCC(C(=O)NCCCSC3CCCCC3)C2)cc2sccc21 (configuration not stated), the AC50 [5] was 5.7 µM (active) and the AC50 [6] was 21.6 µM (active).
With Cc1ccc2nc(-c3ccc(NC(=S)NCC(C)(C)CN(C)C)cc3)sc2c1 the IC50 (Vero) was 15.4 µM (active), the IC50 (HEK293) was > 67.5 µM (inactive) and the IC50 [7] was > 67.5 µM (inactive).
For O=C(O)[C@@H](O)c1ccccc1, the IC50 [8] was > 100 µM (not active), the IC50 [9] was > 100 µM (not active) and the IC50 [10] was > 100 µM (inactive). For the same compound, the IC50 [11] was > 100 µM (not active), the IC50 [12] was > 100 µM (inactive) and the IC50 [13] was > 100 µM (inactive).
With C=C1c2cccc(O)c2C(=O)C2=C(O)[C@]3(O)C(=O)C(C(N)=O)=C(O)[C@@H](N(C)C)[C@@H]3[C@@H](O)[C@H]12 [METHACYCLINE HYDROCHLORIDE] the EC50 [14] was 0.099 µM (active), the IC50 (NS3) was > 109 µM (not active) and the EC50 [15] was > 100 µM (active). For the same compound, the EC50 (Streptococcus) was 0.109 µM (active), the IC50 [16] was 66.8 µM (active) and the IC50 [17] was > 122 µM (inactive). For the same compound, the IC50 [18] was > 122 µM (inactive), the AC50 (Escherichia coli [19]) was 29.5 µM (active) and the AC50 (Escherichia coli [20]) was 0.707 µM (active).
